Patent US12655116B2, “Substituted isophthalic acid diamides” (Bayer Aktiengesellschaft, priority 2020, dated 2026)

Tests used:
ECHCG [1] = assay: Pre-emergence herbicidal action against ECHCG; assay type: in vivo, Echinochloa crus-galli; conditions: Echinochloa crus-galli, 504 h, 80 g/ha
Summary of the method: (§1)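 Visual rating at 3 weeks vs untreated pots; 0–100% scale, 100% = plants died. Treatment: aqueous WP/EC spray onto covering soil, 600–800 l/ha, 0.2% wetter, seeds in sandy loam.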

AMARE = assay: Pre-emergence herbicidal action against AMARE; assay type: in vivo, Amaranthus retroflexus; conditions: Amaranthus retroflexus, 504 h, scored visually after 3 weeks vs untreated controls, 100% = plants have died, 0% = like control plants
Summary of the method: as §1

POLCO = assay: Post-emergence herbicidal action against POLCO; assay type: in vivo, Polygonum convolvulus; conditions: Fallopia convolvulus, 504 h, dosage 20 g/ha
Procedure: Seeds of monocotyledonous and dicotyledonous weed and crop plants are laid out in sandy loam soil in wood-fiber pots, covered with soil and cultivated in a greenhouse under good growth conditions. 2 to 3 weeks after sowing, the test plants are treated at the one-leaf stage. The compounds of the invention, formulated in the form of wettable powders (WP) or as emulsion concentrates (EC), are then sprayed onto the green parts of the plants in the form of an aqueous suspension or emulsion at a water application rate equivalent to 600 to 800 l/ha, with addition of 0.2% wetting agent. After the test plants have been left to stand in the greenhouse under optimal growth conditions for about 3 weeks, the action of the preparations is assessed visually in comparison to untreated controls (herbicidal action in percent (%): 100% activity=the plants have died, 0% activity=like control plants). […] The tables below illustrate, in an illustrative manner, the post-emergence herbicidal action of the compounds of the invention, the herbicidal activity being stated in percent.

MATIN [2] = assay: Pre-emergence herbicidal action against MATIN; assay type: in vivo, Matricaria inodora; conditions: Tripleurospermum inodorum, 504 h
Summary of the method: as §1

VIOTR [3] = assay: Post-emergence herbicidal action against VIOTR; assay type: in vivo, Viola tricolor; conditions: Viola tricolor, 504 h
Summary of the method: (§2)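 Greenhouse pot plants in sandy loam were sprayed at the one-leaf stage, 2 to 3 weeks after sowing, with WP or EC formulations as aqueous suspension or emulsion (600 to 800 l/ha water, 0.2% wetting agent). About 3 weeks later, damage was scored visually against untreated controls as % action (100% = dead, 0% = like control).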

ALOMY = assay: Pre-emergence herbicidal action against ALOMY; assay type: in vivo, Alopecurus myosuroides; conditions: Alopecurus myosuroides, 504 h; 80 g/ha, pre-emergence, scored visually after 3 weeks vs untreated controls (100% = plants have died, 0% = like control plants)
Summary of the method: as §1

ABUTH [4] = assay: Post-emergence herbicidal action against ABUTH; assay type: in vivo, Abutilon theophrasti; conditions: Abutilon theophrasti, 504 h, visual assessment about 3 weeks after treatment vs untreated controls
Summary of the method: as §2

VIOTR [5] = assay: Pre-emergence herbicidal action against VIOTR; assay type: in vivo, Viola tricolor; conditions: Viola tricolor, 504 h
Summary of the method: as §1

SETVI = assay: Pre-emergence herbicidal action against SETVI; assay type: in vivo, Setaria viridis; conditions: Setaria viridis, 504 h, dosage 80 g/ha
Summary of the method: as §1

ABUTH [6] = assay: Pre-emergence herbicidal action against ABUTH; assay type: in vivo, Abutilon theophrasti; conditions: Abutilon theophrasti, 504 h
Summary of the method: as §1

VERPE [7] = assay: Pre-emergence herbicidal action against VERPE; assay type: in vivo, Veronica persica; conditions: Veronica persica, 504 h
Summary of the method: as §1

MATIN [8] = assay: Post-emergence herbicidal action against MATIN; assay type: in vivo, Matricaria inodora; conditions: Tripleurospermum inodorum, 504 h, dosage 20 g/ha
Summary of the method: as §2

ECHCG [9] = assay: Post-emergence herbicidal action against ECHCG; assay type: in vivo, Echinochloa crus-galli; conditions: Echinochloa crus-galli, 504 h
Summary of the method: as §2

DIGSA = assay: Pre-emergence herbicidal action against DIGSA; assay type: in vivo, Digitaria sanguinalis; conditions: Digitaria sanguinalis, 504 h
Summary of the method: as §1

VERPE [10] = assay: Post-emergence herbicidal action against VERPE; assay type: in vivo, Veronica persica; conditions: Veronica persica, 504 h
Summary of the method: as §2

CCNC(=O)c1c(C(F)F)ccc(C(=O)Nc2nnnn2C)c1OC [Example 1-73]
80%: pest or weed control at 20 g/ha (POLCO) | pest or weed control at 5 g/ha (VIOTR [3]; 5 g/ha) | pest or weed control at 20 g/ha (VIOTR [3]; 20 g/ha) | pest or weed control at 80 g/ha (ALOMY) | pest or weed control at 5 g/ha (ABUTH [4]; dosage 5 g/ha) | pest or weed control at 20 g/ha (ABUTH [4]; dosage 20 g/ha) | pest or weed control at 20 g/ha (VERPE [7]; dosage 20 g/ha) | pest or weed control at 20 g/ha (MATIN [8]) | pest or weed control at 5 g/ha (ECHCG [9]; dosage 5 g/ha) | pest or weed control at 20 g/ha (ECHCG [9]; dosage 20 g/ha) | pest or weed control at 5 g/ha (VERPE [10]; 5 g/ha) | pest or weed control at 20 g/ha (VERPE [10]; 20 g/ha)
90%: pest or weed control at 20 g/ha (MATIN [2]; dosage 20 g/ha) | pest or weed control at 20 g/ha (DIGSA; dosage 20 g/ha)
100%: pest or weed control at 80 g/ha (ECHCG [1]) | pest or weed control at 20 g/ha (AMARE; 20 g/ha) | pest or weed control at 80 g/ha (AMARE; 80 g/ha) | pest or weed control at 80 g/ha (MATIN [2]; dosage 80 g/ha) | pest or weed control at 20 g/ha (VIOTR [5]; dosage 20 g/ha) | pest or weed control at 80 g/ha (VIOTR [5]; dosage 80 g/ha) | pest or weed control at 80 g/ha (SETVI) | pest or weed control at 80 g/ha (ABUTH [6]; 80 g/ha, scored visually after 3 weeks vs untreated controls (100% = plants have died, 0% = like control plants)) | pest or weed control at 20 g/ha (ABUTH [6]; dosage 20 g/ha, scored visually after 3 weeks vs untreated controls, 100% = plants have died, 0% = like control plants, read-out: Pre-emergence action against ABUTH (herbicidal activity in percent)) | pest or weed control at 80 g/ha (VERPE [7]; dosage 80 g/ha) | pest or weed control at 80 g/ha (DIGSA; dosage 80 g/ha)
